According to US6355799B1, “Substituted benzene compounds, process for their preparation, and herbicidal and defoliant compositions containing them” (ISK Americas Incorporated, priority 1997, dated 2002):

Key:
Assay type in all cases: in vivo
[1] = system: common ragweed (Ambrosia artemisizfolia L., AMBEL); assay: Pre-emerge test, greenhouse herbicide activity screening; conditions: pre-emerge, 14 days after application, scale 0-100
Outline: (§1)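 Visual ratings on a 0-100 scale (0 no damage, 100 all plants dead) were taken at 14 days after treatment. Rates of 15-1000 g ai/ha in acetone, 187 l/ha, were sprayed onto soil one day after planting (pre-emerge) or onto 2-3 leaf plants with 0.25% v/v surfactant (post-emerge).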

[2] = system: velvetleaf (Abutilon theophrasti, ABUTH); assay: as above; conditions: pre-emerge, 14 days after application, scale 0-100
Outline: as §1

[3] = system: large crabgrass (Digitaria sanguinalis, DIGSA); assay: as above; conditions: pre-emerge, 14 days after application, scale 0-100
Outline: as §1

[4] = system: ivyleaf morningglory (Ipomoea hederacea, IPOHE); assay: as above; conditions: pre-emerge, 14 days after application, scale 0-100
Outline: as §1

[5] = system: johnsongrass (Sorghum halepense, SORHA); assay: as above; conditions: pre-emerge, 14 days after application, scale 0-100
Outline: as §1

[6] = system: sicklepod (Cassia obtusifolia, CASOB); assay: as above; conditions: pre-emerge, 14 days after application, scale 0-100
Outline: as §1

[7] = system: green foxtail (Setaria viridis, SETVI); assay: as above; conditions: pre-emerge, 14 days after application, scale 0-100
Outline: as §1

[8] = system: lambsquarters (Chenopodium album, CHEAL); assay: as above; conditions: pre-emerge, 14 days after application, scale 0-100
Outline: as §1

[9] = system: barnyardgrass (Echinochloa crus-galli, ECHCG); assay: as above; conditions: pre-emerge, 14 days after application, scale 0-100
Outline: as §1

[10] = system: upland rice (Oryza sp., var. Tebonnet, RICE); assay: Pre-emerge test, crop safety; conditions: pre-emerge, 14 days after application, scale 0-100
Outline: (§2)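 Fourteen days after spraying, crop and weed injury was graded visually from 0, no effect, to 100, every plant dead. Test substances were dissolved in acetone and applied at 15–1000 g ai/ha with a flat-fan nozzle. Application was either pre-emergence, one day after sowing, or post-emergence at the 2–3 leaf stage.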

[11] = system: field corn (Zea mays L., var. Dekalb 535, CORN); assay: Pre-emerge test, crop safety; conditions: pre-emerge, 14 days after application, scale 0-100
Outline: as §2

[12] = system: velvetleaf (Abutilon theophrasti, ABUTH); assay: Post-emerge test, greenhouse herbicide activity screening; conditions: post-emerge, 14 days after application, rating scale 0-100
Outline: (§3)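 Plants grown in 10 cm pots of sandy loam mix received acetone-dissolved compounds through a moving flat-fan nozzle. Doses ranged from 15 to 1000 g ai/ha. Pre-emerge pots were seeded one day earlier, post-emerge pots 8–21 days earlier. Fourteen days on, each pot was graded 0–100 for damage.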

[13] = system: large crabgrass (Digitaria sanguinalis, DIGSA); assay: as above; conditions: post-emerge, 14 days after application, rating scale 0-100
Outline: as §3

[14] = system: ivyleaf morningglory (Ipomoea hederacea, IPOHE); assay: as above; conditions: post-emerge, 14 days after application, rating scale 0-100
Outline: as §3

[15] = system: redroot pigweed (Amaranthus retroflexus, AMARE); assay: as above; conditions: post-emerge, 14 days after application, rating scale 0-100
Outline: as §3

[16] = system: johnsongrass (Sorghum halepense, SORHA); assay: as above; conditions: post-emerge, 14 days after application, rating scale 0-100
Outline: as §3

[17] = system: sicklepod (Cassia obtusifolia, CASOB); assay: as above; conditions: post-emerge, 14 days after application, rating scale 0-100
Outline: as §3

[18] = system: green foxtail (Setaria viridis, SETVI); assay: as above; conditions: post-emerge, 14 days after application, rating scale 0-100
Outline: as §3

[19] = system: lambsquarters (Chenopodium album, CHEAL); assay: as above; conditions: post-emerge, 14 days after application, rating scale 0-100
Outline: as §3

[20] = system: barnyardgrass (Echinochloa crus-galli, ECHCG); assay: as above; conditions: post-emerge, 14 days after application, rating scale 0-100
Outline: as §3

[21] = system: upland rice (Oryza sp., var. Tebonnet, RICE); assay: Post-emerge test, crop safety; conditions: post-emerge, 14 days after application, rating scale 0-100
Outline: as §1

[22] = system: field corn (Zea mays L., var. Dekalb 535, CORN); assay: Post-emerge test, crop safety; conditions: post-emerge, 14 days after application, rating scale 0-100
Outline: as §1

[23] = system: redroot pigweed (Amaranthus retroflexus, AMARE); assay: Pre-emerge test, greenhouse herbicide activity screening; conditions: pre-emerge, 14 days after application, scale 0-100
Outline: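 Herbicidal damage is scored 0 (none) to 100 (complete plant death) two weeks after a simulated field spray. Rates span 15–1000 g ai/ha, delivered in acetone at 187 l/ha. For post-emergence treatments, plants have 2–3 leaves and the spray carries 0.25% v/v non-ionic surfactant.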

## Cn1c(C(F)(F)F)cc(=O)n(-c2c(F)cc(OC(F)F)cc2NC(=O)c2ccc3ccccc3c2)c1=O [2-148]
[1]; 63 g ai/ha
  phytotoxicity rating AMBEL: 0
[1]; 250 g ai/ha
  phytotoxicity rating AMBEL: 100
[2]; 63 g ai/ha
  phytotoxicity rating ABUTH: 100
[2]; 250 g ai/ha
  phytotoxicity rating ABUTH: 100
[3]; 63 g ai/ha
  phytotoxicity rating DIGSA: 95
[3]; 250 g ai/ha
  phytotoxicity rating DIGSA: 100
[4]; 63 g ai/ha
  phytotoxicity rating IPOHE: 50
[4]; 250 g ai/ha
  phytotoxicity rating IPOHE: 99
[5]; 63 g ai/ha
  phytotoxicity rating SORHA: 0
[5]; 250 g ai/ha
  phytotoxicity rating SORHA: 30
[6]; 63 g ai/ha
  phytotoxicity rating CASOB: 50
[6]; 250 g ai/ha
  phytotoxicity rating CASOB: 95
[7]; 63 g ai/ha
  phytotoxicity rating SETVI: 80
[7]; 250 g ai/ha
  phytotoxicity rating SETVI: 95
[8]; 63 g ai/ha
  phytotoxicity rating CHEAL: 100
[8]; 250 g ai/ha
  phytotoxicity rating CHEAL: 100
[9]; 63 g ai/ha
  phytotoxicity rating ECHCG: 90
[9]; 250 g ai/ha
  phytotoxicity rating ECHCG: 100
[10]; 63 g ai/ha
  phytotoxicity rating RICE (crop damage): 0
[10]; 250 g ai/ha
  phytotoxicity rating RICE (crop damage): 60
[11]; 63 g ai/ha
  phytotoxicity rating CORN (crop damage): 0
[11]; 250 g ai/ha
  phytotoxicity rating CORN (crop damage): 0
[12]; 63 g ai/ha
  ABUTH phytotoxicity rating: 100
[12]; 250 g ai/ha
  ABUTH phytotoxicity rating: 100
[13]; 63 g ai/ha
  DIGSA phytotoxicity rating: 40
[13]; 250 g ai/ha
  DIGSA phytotoxicity rating: 40
[14]; 63 g ai/ha
  IPOHE phytotoxicity rating: 80
[14]; 250 g ai/ha
  IPOHE phytotoxicity rating: 90
[15]; 63 g ai/ha
  AMARE phytotoxicity rating: 100
[15]; 250 g ai/ha
  AMARE phytotoxicity rating: 90
[16]; 63 g ai/ha
  SORHA phytotoxicity rating: 0
[16]; 250 g ai/ha
  SORHA phytotoxicity rating: 10
[17]; 63 g ai/ha
  CASOB phytotoxicity rating: 95
[17]; 250 g ai/ha
  CASOB phytotoxicity rating: 100
[18]; 63 g ai/ha
  SETVI phytotoxicity rating: 50
[18]; 250 g ai/ha
  SETVI phytotoxicity rating: 40
[19]; 63 g ai/ha
  CHEAL phytotoxicity rating: 100
[19]; 250 g ai/ha
  CHEAL phytotoxicity rating: 100
[20]; 63 g ai/ha
  ECHCG phytotoxicity rating: 50
[20]; 250 g ai/ha
  ECHCG phytotoxicity rating: 20
[21]; 63 g ai/ha
  RICE phytotoxicity rating (crop damage): 0
[21]; 250 g ai/ha
  RICE phytotoxicity rating (crop damage): 10
[22]; 63 g ai/ha
  CORN phytotoxicity rating (crop damage): 25
[22]; 250 g ai/ha
  CORN phytotoxicity rating (crop damage): 30
[23]; 63 g ai/ha
  phytotoxicity rating AMARE: 100
[23]; 250 g ai/ha
  phytotoxicity rating AMARE: 100

## Cn1c(C(F)(F)F)cc(=O)n(-c2ccc(C(F)(F)F)cc2NC(=O)c2ccc3ccccc3c2)c1=O [2-149]
[1]; 63 g ai/ha
  phytotoxicity rating AMBEL: 0
[1]; 250 g ai/ha
  phytotoxicity rating AMBEL: 100
[2]; 63 g ai/ha
  phytotoxicity rating ABUTH: 99
[2]; 250 g ai/ha
  phytotoxicity rating ABUTH: 100
[3]; 63 g ai/ha
  phytotoxicity rating DIGSA: 90
[3]; 250 g ai/ha
  phytotoxicity rating DIGSA: 100
[4]; 63 g ai/ha
  phytotoxicity rating IPOHE: 30
[4]; 250 g ai/ha
  phytotoxicity rating IPOHE: 70
[5]; 63 g ai/ha
  phytotoxicity rating SORHA: 30
[5]; 250 g ai/ha
  phytotoxicity rating SORHA: 50
[6]; 63 g ai/ha
  phytotoxicity rating CASOB: 0
[6]; 250 g ai/ha
  phytotoxicity rating CASOB: 50
[7]; 63 g ai/ha
  phytotoxicity rating SETVI: 50
[7]; 250 g ai/ha
  phytotoxicity rating SETVI: 90
[8]; 63 g ai/ha
  phytotoxicity rating CHEAL: 100
[8]; 250 g ai/ha
  phytotoxicity rating CHEAL: 100
[9]; 63 g ai/ha
  phytotoxicity rating ECHCG: 50
[9]; 250 g ai/ha
  phytotoxicity rating ECHCG: 100
[10]; 63 g ai/ha
  phytotoxicity rating RICE (crop damage): 0
[10]; 250 g ai/ha
  phytotoxicity rating RICE (crop damage): 50
[11]; 63 g ai/ha
  phytotoxicity rating CORN (crop damage): 0
[11]; 250 g ai/ha
  phytotoxicity rating CORN (crop damage): 20
[12]; 63 g ai/ha
  ABUTH phytotoxicity rating: 100
[12]; 250 g ai/ha
  ABUTH phytotoxicity rating: 100
[13]; 63 g ai/ha
  DIGSA phytotoxicity rating: 0
[13]; 250 g ai/ha
  DIGSA phytotoxicity rating: 20
[14]; 63 g ai/ha
  IPOHE phytotoxicity rating: 70
[14]; 250 g ai/ha
  IPOHE phytotoxicity rating: 95
[15]; 63 g ai/ha
  AMARE phytotoxicity rating: 80
[15]; 250 g ai/ha
  AMARE phytotoxicity rating: 80
[16]; 63 g ai/ha
  SORHA phytotoxicity rating: 0
[16]; 250 g ai/ha
  SORHA phytotoxicity rating: 0
[17]; 63 g ai/ha
  CASOB phytotoxicity rating: 95
[17]; 250 g ai/ha
  CASOB phytotoxicity rating: 95
[18]; 63 g ai/ha
  SETVI phytotoxicity rating: 10
[18]; 250 g ai/ha
  SETVI phytotoxicity rating: 20
[19]; 63 g ai/ha
  CHEAL phytotoxicity rating: 90
[19]; 250 g ai/ha
  CHEAL phytotoxicity rating: 95
[20]; 63 g ai/ha
  ECHCG phytotoxicity rating: 20
[20]; 250 g ai/ha
  ECHCG phytotoxicity rating: 50
[21]; 63 g ai/ha
  RICE phytotoxicity rating (crop damage): 0
[21]; 250 g ai/ha
  RICE phytotoxicity rating (crop damage): 10
[22]; 63 g ai/ha
  CORN phytotoxicity rating (crop damage): 0
[22]; 250 g ai/ha
  CORN phytotoxicity rating (crop damage): 15
[23]; 63 g ai/ha
  phytotoxicity rating AMARE: 100
[23]; 250 g ai/ha
  phytotoxicity rating AMARE: 100
